Measured values from patent US8030354B2, “Substituted biphenyl GPR40 modulators” (Amgen Inc., priority 2007, dated 2011).

What was measured:
GPR40 [1] = target: T1, GPR40 (Homo sapiens, UniProt O14842); experiment: Cell-based aequorin assay (CHO cells stably expressing GPR40 and aequorin); set-up: expressed in transfected cells; host or cells: CHO cells stably transfected with GPR40 and aequorin; settings: activation of human GPR40, CHO cells, 0.01% HSA
Summary of the method: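 CHO cells stably co-expressing GPR40 and aequorin, loaded with coelenterazine (1 ug/mL, 2 h, room temperature) in H/HBSS with 20 mM Hepes and 0.01% fatty acid-free HSA. Serially diluted compounds added; luminescence recorded over 20 s. EC50 from dose-response of maximum relative light units.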

GPR40 [2] = target: T1, GPR40; experiment: Inositol phosphate accumulation assay (A9_GPR40 cells); assay type: cell-based; set-up: expressed in transfected cells; host or cells: CHO cells stably transfected with GPR40 and aequorin; settings: inositol phosphate assay, A9_GPR40 cells, 1 hour; read-out: IP3 EC50
Procedure: Briefly, the Aequorin assays were performed on doubly stable CHO cells expressing GPR40 and Aequorin DNA. […] The luminescence was recorded over a period of 20 seconds with a Microlumat luminometer (Berthold). […] The inositol phosphate assay was performed on an A9 cell line stably transfected with GPR40 (A9_GPR40). The cells were incubated with different concentrations of compounds and [^3H] inositol accumulation was measured after 1 hour.
An A9 cell line stably transfected with GPR40 (A9_GPR40) was used in IP accumulation assays. A9_GPR40 cells were plated in 96-well plates containing 20,000 cells/well in DMEM containing 10% FBS. After the cells attached to the well surface, the media was replaced with inositol free DMEM containing 10% dialyzed FBS and 1 μCi, mL ^3H-inositol and incubated for 16 hours. Compounds were diluted in HBSS/10 mM LiCl containing a desired amount of HSA and added directly to cells. Following 1 hour incubation at 37° C., the media was replaced with 100 μL of 20 mM formic acid to quench the reaction. 50 μL of the extract was then added to 100 μL of SPA beads, incubated overnight, and measured on a TopCount the following day.

T1 sequence (O14842 whole entry): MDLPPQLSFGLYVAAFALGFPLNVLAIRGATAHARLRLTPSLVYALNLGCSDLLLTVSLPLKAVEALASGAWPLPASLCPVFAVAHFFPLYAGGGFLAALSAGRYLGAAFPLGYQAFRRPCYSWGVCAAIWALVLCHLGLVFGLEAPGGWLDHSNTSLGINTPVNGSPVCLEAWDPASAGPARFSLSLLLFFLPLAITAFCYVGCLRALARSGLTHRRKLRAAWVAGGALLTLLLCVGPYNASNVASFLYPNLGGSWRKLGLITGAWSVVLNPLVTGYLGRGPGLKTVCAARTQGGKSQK

| Compound | EC50 (GPR40 [1]) | EC50 (GPR40 [2]) |
| --- | --- | --- |
| COc1ccc(F)c(-c2ccc(COc3cccc([C@H](C)CC(=O)O)c3)cc2C2=CCCC2(C)C)c1 (single isomer, unassigned) [Example 55, (3R)-3-(3-(((2-(5,5-Dimethyl-1-cyclopenten-1-yl)-2′-fluoro-5′-(methyloxy)-1,1′-biphenyl-4-yl)methyl)oxy)phenyl)butanoic acid or (3S)-3-(3-(((2-(5,5-dimethyl-1-cyclopenten-1-yl)-2′-fluoro-5′-(methyloxy)-1,1′-biphenyl-4-yl)methyl)oxy)phenyl)butanoic acid] | 100 to 1000 nM | 10 to 100 nM |
| C=C(C)[C@H](CC(=O)O)c1cccc(OCc2ccc(-c3cccc(OC)c3)c(C(C)(C)C)c2)c1 (single isomer, unassigned) [Example 56, (3S)-3-(3-(((2-(1,1-Dimethylethyl)-3′-(methyloxy)-1,1′-biphenyl-4-yl)methyl)oxy)phenyl)-4-methyl-4-pentenoic acid or (3R)-3-(3-(((2-(1,1-dimethylethyl)-3′-(methyloxy)-1,1′-biphenyl-4-yl)methyl)oxy)phenyl)-4-methyl-4-pentenoic acid] | 100 to 1000 nM | 100 to 1000 nM |
| C=CC[C@H](CC(=O)O)c1cccc(OCc2ccc(-c3cccc(OC)c3)c(C(C)(C)C)c2)c1 (single isomer, unassigned) [Example 57, (3R)-3-(3-(((2-(1,1-dimethylethyl)-3′-(methyloxy)-1,1′-biphenyl-4-yl)methyl)oxy)phenyl)-5-hexenoic acid or (3S)-3-(3-(((2-(1,1-dimethylethyl)-3′-(methyloxy)-1,1′-biphenyl-4-yl)methyl)oxy)phenyl)-5-hexenoic acid] | 100 to 1000 nM | 100 to 1000 nM |
| CCC[C@H](CC(=O)O)c1cccc(OCc2ccc(-c3cc(OC)ccc3F)c(C3=CCCC3(C)C)c2)c1 (single isomer, unassigned) [Example 59, (3R)-3-(3-(((2-(5,5-Dimethyl-1-cyclopenten-1-yl)-2′-fluoro-5′-(methyloxy)-1,1′-biphenyl-4-yl)methyl)oxy)phenyl)hexanoic acid or (3S)-3-(3-(((2-(5,5-dimethyl-1-cyclopenten-1-yl)-2′-fluoro-5′-(methyloxy)-1,1′-biphenyl-4-yl)methyl)oxy)phenyl)hexanoic acid] | 100 to 1000 nM | 10 to 100 nM |
| CCCCOc1cc(COc2cccc([C@H](CCC)CC(=O)O)c2)ccc1-c1cc(OC)ccc1F (single isomer, unassigned) [Example 60, (3R)-3-(3-(((2-(Butyloxy)-2′-fluoro-5′-(methyloxy)-1,1′-biphenyl-4-yl)methyl)oxy)phenyl)hexanoic acid or (3S)-3-(3-(((2-(butyloxy)-2′-fluoro-5′-(methyloxy)-1,1′-biphenyl-4-yl)methyl)oxy)phenyl)hexanoic acid] | 100 to 1000 nM | 100 to 1000 nM |
| COc1ccc(F)c(-c2ccc(COc3cccc(C(C)CC(=O)O)c3)cc2/C=C/C(C)(C)C)c1 (single isomer, unassigned) [Example 64.4, (3R)-3-(3-(((2-((1E)-3,3-Dimethyl-1-butenyl)-2′-fluoro-5′-(methyloxy)-1,1′-biphenyl-4-yl)methyl)oxy)phenyl)butanoic acid or (3S)-3-(3-(((2-((1E)-3,3-dimethyl-1-butenyl)-2′-fluoro-5′-(methyloxy)-1,1′-biphenyl-4-yl)methyl)oxy)phenyl)butanoic acid] | 100 to 1000 nM | 10 to 100 nM |
| COc1ccc(F)c(-c2ccc(COc3cccc(C(C)CC(=O)O)c3)cc2C2=CCC(C)(C)CC2)c1 (single isomer, unassigned) [Example 64.5, (3R)-3-(3-(((2-(4,4-Dimethyl-1-cyclohexen-1-yl)-2′-fluoro-5′-(methyloxy)-1,1′-biphenyl-4-yl)methyl)oxy)phenyl)butanoic acid or (3S)-3-(3-(((2-(4,4-dimethyl-1-cyclohexen-1-yl)-2′-fluoro-5′-(methyloxy)-1,1′-biphenyl-4-yl)methyl)oxy)phenyl)butanoic acid] | 100 to 1000 nM | 10 to 100 nM |
| COc1ccc(F)c(-c2ccc(COc3cccc(C(C)CC(=O)O)c3)cc2CCC(C)(C)C)c1 (single isomer, unassigned) [Example 64.6, (3R)-3-(3-(((2-(3,3-Dimethylbutyl)-2′-fluoro-5′-(methyloxy)-1,1′-biphenyl-4-yl)methyl)oxy)phenyl)butanoic acid or (3S)-3-(3-(((2-(3,3-dimethylbutyl)-2′-fluoro-5′-(methyloxy)-1,1′-biphenyl-4-yl)methyl)oxy)phenyl)butanoic acid] | 100 to 1000 nM | 10 to 100 nM |
| COc1ccc(F)c(-c2ccc(COc3cccc(C(C)CC(=O)O)c3)cc2C2CCC(C)(C)CC2)c1 (single isomer, unassigned) [Example 64.7, (3R)-3-(3-(((2-(4,4-Dimethylcyclohexyl)-2′-fluoro-5′-(methyloxy)-1,1′-biphenyl-4-yl)methyl)oxy)phenyl)butanoic acid or (3S)-3-(3-(((2-(4,4-dimethylcyclohexyl)-2′-fluoro-5′-(methyloxy)-1,1′-biphenyl-4-yl)methyl)oxy)phenyl)butanoic acid] | 100 to 1000 nM | 10 to 100 nM |
| COc1ccc(F)c(-c2ccc(COc3cccc(C(C)CC(=O)O)c3)c(F)c2C(C)(C)C)c1 (single isomer, unassigned) [Example 64.10, (3R)-3-(3-(((2-(1,1-Dimethylethyl)-2′,3-difluoro-5′-(methyloxy)-1,1′-biphenyl-4-yl)methyl)oxy)phenyl)butanoic acid or (3S)-3-(3-(((2-(1,1-dimethylethyl)-2′,3-difluoro-5′-(methyloxy)-1,1′-biphenyl-4-yl)methyl)oxy)phenyl)butanoic acid] | 100 to 1000 nM | 100 to 1000 nM |
| CCCC(C)(C)c1cc(COc2cccc(C(C)CC(=O)O)c2)ccc1-c1cc(OC)ccc1F (single isomer, unassigned) [Example 64.11, (3R)-3-(3-(((2-(1,1-Dimethylbutyl)-2′-fluoro-5′-(methyloxy)-1,1′-biphenyl-4-yl)methyl)oxy)phenyl)butanoic acid or (3S)-3-(3-(((2-(1,1-dimethylbutyl)-2′-fluoro-5′-(methyloxy)-1,1′-biphenyl-4-yl)methyl)oxy)phenyl)butanoic acid] | 100 to 1000 nM | 100 to 1000 nM |
| COc1ccc(F)c(-c2ccc(COc3cccc(C(C)CC(=O)O)c3)cc2C2=CCCCCC2)c1 (single isomer, unassigned) [Example 64.12, (3R)-3-(3-(((2-(1-Cyclohepten-1-yl)-2′-fluoro-5′-(methyloxy)-1,1′-biphenyl-4-yl)methyl)oxy)phenyl)butanoic acid or (3S)-3-(3-(((2-(1-cyclohepten-1-yl)-2′-fluoro-5′-(methyloxy)-1,1′-biphenyl-4-yl)methyl)oxy)phenyl)butanoic acid] | 100 to 1000 nM | 10 to 100 nM |
| COc1ccc(F)c(-c2ccc(COc3cccc(C(C)CC(=O)O)c3)cc2C2=CCC(C(C)(C)C)CC2)c1 (single isomer, unassigned) [Example 64.13, (3R)-3-(3-(((2-(4-(1,1-Dimethylethyl)-1-cyclohexen-1-yl)-2′-fluoro-5′-(methyloxy)-1,1′-biphenyl-4-yl)methyl)oxy)phenyl)butanoic acid or (3S)-3-(3-(((2-(4-(1,1-dimethylethyl)-1-cyclohexen-1-yl)-2′-fluoro-5′-(methyloxy)-1,1′-biphenyl-4-yl)methyl)oxy)phenyl)butanoic acid] | 100 to 1000 nM | 10 to 100 nM |
| CCCCCc1cc(COc2cccc(C(C)CC(=O)O)c2)ccc1-c1cc(OC)ccc1F (single isomer, unassigned) [Example 64.14, (3R)-3-(3-(((2′-Fluoro-5′-(methyloxy)-2-pentyl-1,1′-biphenyl-4-yl)methyl)oxy)phenyl)butanoic acid or (3S)-3-(3-(((2′-fluoro-5′-(methyloxy)-2-pentyl-1,1′-biphenyl-4-yl)methyl)oxy)phenyl)butanoic acid] | 100 to 1000 nM | 100 to 1000 nM |
| COc1ccc(F)c(-c2ccc(COc3cccc(C(C)CC(=O)O)c3)cc2CCC2CCCCC2)c1 (single isomer, unassigned) [Example 64.15, (3R)-3-(3-(((2-(2-Cyclohexylethyl)-2′-fluoro-5′-(methyloxy)-1,1′-biphenyl-4-yl)methyl)oxy)phenyl)butanoic acid or (3S)-3-(3-(((2-(2-cyclohexylethyl)-2′-fluoro-5′-(methyloxy)-1,1′-biphenyl-4-yl)methyl)oxy)phenyl)butanoic acid] | 100 to 1000 nM | 10 to 100 nM |
